From patent US20260138961A1, “MODULATORS OF MITOCHONDRIAL DNA REPLICATION” (Pretzel Therapeutics, Inc., priority 2022, published 2026)
Positions count from the first letter of the chain named.

Tests used:
POLγA:G848S = molecular target: T1, POLγA:G848S (Homo sapiens, UniProt P54098, G848S); experiment: DNA polymerization assay, POLγA:G848S mutant; assay type: biochemical; details: stimulation of polymerase activity, primed M13mp18 ssDNA, 37° C. 2 hours; read-out: G848S AC50
T1 sequence (P54098 1-1239 G848S): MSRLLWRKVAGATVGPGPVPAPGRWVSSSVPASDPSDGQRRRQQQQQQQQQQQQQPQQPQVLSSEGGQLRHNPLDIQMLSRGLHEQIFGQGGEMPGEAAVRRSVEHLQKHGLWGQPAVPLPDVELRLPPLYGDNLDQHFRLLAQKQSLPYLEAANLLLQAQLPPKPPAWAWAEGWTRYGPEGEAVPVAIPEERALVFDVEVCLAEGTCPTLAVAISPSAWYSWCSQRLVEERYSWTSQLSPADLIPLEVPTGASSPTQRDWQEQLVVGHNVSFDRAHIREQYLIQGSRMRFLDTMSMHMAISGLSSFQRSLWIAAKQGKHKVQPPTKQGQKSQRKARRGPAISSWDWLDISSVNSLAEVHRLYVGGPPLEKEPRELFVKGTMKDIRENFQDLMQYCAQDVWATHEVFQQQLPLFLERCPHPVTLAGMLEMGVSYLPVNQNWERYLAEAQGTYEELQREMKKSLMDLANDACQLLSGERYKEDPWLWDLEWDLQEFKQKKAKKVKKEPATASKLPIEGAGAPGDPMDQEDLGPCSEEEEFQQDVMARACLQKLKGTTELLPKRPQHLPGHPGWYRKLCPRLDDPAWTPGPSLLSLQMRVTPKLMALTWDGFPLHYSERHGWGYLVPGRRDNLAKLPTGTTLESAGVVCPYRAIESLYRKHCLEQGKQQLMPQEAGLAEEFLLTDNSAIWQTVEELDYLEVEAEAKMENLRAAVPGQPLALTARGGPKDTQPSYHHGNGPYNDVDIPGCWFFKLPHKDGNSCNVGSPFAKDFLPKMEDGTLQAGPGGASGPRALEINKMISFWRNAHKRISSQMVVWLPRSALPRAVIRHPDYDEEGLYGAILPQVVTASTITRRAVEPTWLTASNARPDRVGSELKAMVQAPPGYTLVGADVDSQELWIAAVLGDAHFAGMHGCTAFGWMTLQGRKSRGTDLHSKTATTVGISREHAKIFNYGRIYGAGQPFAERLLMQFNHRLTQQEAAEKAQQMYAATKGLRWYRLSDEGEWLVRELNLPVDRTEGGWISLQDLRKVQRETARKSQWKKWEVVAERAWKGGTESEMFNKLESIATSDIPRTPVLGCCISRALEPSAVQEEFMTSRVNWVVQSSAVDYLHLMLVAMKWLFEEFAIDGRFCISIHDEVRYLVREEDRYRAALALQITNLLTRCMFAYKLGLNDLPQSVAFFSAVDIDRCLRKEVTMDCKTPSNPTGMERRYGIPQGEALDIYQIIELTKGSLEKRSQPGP
T1 sequence (Q9UHN1 1-485 partner): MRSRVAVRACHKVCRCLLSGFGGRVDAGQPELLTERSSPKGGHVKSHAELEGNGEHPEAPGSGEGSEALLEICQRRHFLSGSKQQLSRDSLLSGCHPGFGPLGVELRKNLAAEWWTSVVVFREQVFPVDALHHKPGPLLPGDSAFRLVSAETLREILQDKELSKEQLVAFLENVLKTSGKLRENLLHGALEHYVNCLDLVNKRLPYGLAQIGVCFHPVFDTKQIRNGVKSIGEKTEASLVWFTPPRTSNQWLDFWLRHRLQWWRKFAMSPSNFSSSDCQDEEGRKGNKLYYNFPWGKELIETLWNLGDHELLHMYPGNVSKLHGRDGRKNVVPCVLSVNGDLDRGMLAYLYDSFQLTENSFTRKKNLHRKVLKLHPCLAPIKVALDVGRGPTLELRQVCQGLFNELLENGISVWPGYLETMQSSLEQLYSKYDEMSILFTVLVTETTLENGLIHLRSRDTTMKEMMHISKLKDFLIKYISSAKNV
Method: DNA Polymerization Assay to Monitor Effects on Human Wildtype POLγ and Four Disease-Causing Mutant Variants of Human POLγ.
The ability of small molecules to stimulate the polymerase activity of POLγ was analyzed in a quantitative fluorescence SYBR Green I assay with fluorescence intensity (FI) readout.
In the presence of dNTPs, wild type human POLγ and mutant derivatives thereof were incubated with single-stranded, circular M13mp18 ssDNA hybridized to a short DNA oligonucleotide that functions as a primer for initiation of DNA synthesis. POLγ and mutant derivatives thereof will extend the primer and use the M13mp18 molecule as a template to synthesize long stretches of double-stranded DNA. SYBR Green I, which is a double-stranded DNA-binding dye, was used to quantify formation of double-stranded DNA in the reaction. When bound to double-stranded DNA, SYBR Green I fluorescence increases by up to 100-fold.
The assay was performed in the 384-well plate format. Upon addition of compounds, changes in double-stranded DNA synthesis activity can be monitored by following effects on fluorescent intensity.
The reactions also contained the accessory POLγB subunit, and the human mitochondrial single-stranded DNA binding protein (mtSSB).
The DNA template mixture used in the assay contained 0.5 nM primed M13 mp18 ssDNA, 400 nM mtSSB, 0.1 mM Tris-HCl (pH 8.0), 0.1 mM dNTP, 10 mM MgCl2, 0.1 mg/mL BSA, 1 mM TCEP solution, and 0.02% Triton X-100. The DNA template mixture for the wild type protein contained either 100 μM dNTP, 1 μM dNTP, or 0.1 μM dNTP, designated in Table 2 as 100 μM, 1 μM, and 0.1 μM, respectfully.
(§1) Microplates with compounds (0.1 μL in each well) to be tested in the assay were prepared from 10 mM compound stocks in 100% DMSO, and equal amounts of DMSO without any compound were added to positive and negative control wells.
The protein mixture was dispensed (5 μL into each well) into compound plates and incubated at 37° C. for 15 minutes. After incubation, 5 μL of the DNA template mixture was dispensed into each well. The plates were then incubated at 37° C. for 2 hours.
(§2) During incubation, a combined stop buffer and detection reagent solution was prepared. The buffer contained 25 mM EDTA (pH 8.0), 0.02% Triton X-100, and SYBR Green I [Invitrogen] diluted 10,000× (for fluorescent readout). EDTA will stop the enzymatic reaction by chelating magnesium ions.

[1] = molecular target: T2, human POLγ 3′-5′ exonuclease activity (Homo sapiens, UniProt P54098); experiment: Exonuclease inhibition assay with human POLγ (SYBR Green I fluorescence); assay type: biochemical; details: POLγA 1 nM, POLγB 1.3 nM, 5 nM exonuclease template, no dNTPs, 37° C. 2.5 hours
T2 sequence (P54098 1-1239): T1 sequence (P54098 1-1239 G848S) with S848G
T2 sequence (Q9UHN1 1-485 partner): T1 sequence (Q9UHN1 1-485 partner)
Method: Exonuclease inhibition assay with human POLγ.
The ability of small molecules to inhibit the 3′-5′ exonuclease activity of POLγ was analyzed in a quantitative fluorescence SYBR Green I assay with fluorescence intensity (FI) readout.
Human POLγ was incubated with a linear, partially double-stranded template containing an 85 base pair double-stranded DNA stretch and a 15 nucleotides long single-stranded 5′-tail (hereafter referred to as the “exonuclease template”). […] When bound to double-stranded DNA, SYBR Green I fluorescence increases by up to 100-fold. In the absence of deoxynucleotide triphosphates (dNTPs), the exonuclease activity of POLγ degrades the 85-mer strand, which leads to the formation of single-stranded DNA (ssDNA) and decreased fluorescent intensity. The assay was performed in a 384-well plate format.
The exonuclease template used was generated by hybridization of a 100 nucleotides long, single-stranded DNA molecule with an inverted dT at the 3′-end (5′-TTTTTTTTTATCCGGGCTCGTTATCTAAGCTGCTCTTGGTAGGCATTGACGTCCATACTGCAAATTCAGCTCTGTGCAGTTAGGCAGGAGTCTACAAGC invT-3′) to an 85 nucleotides long single-stranded DNA molecule (5′-AGCTTGTAGACTCCTGCCTAACTGCACAGAGCTGAATTTGCAGTATGGACGTCAATGCCTACCAGAGCAGCTTAGATAACGAGC-3′), using a Bio-Rad T100 Thermal Cycler. The inverted dT is characterized by a 3′-3′ linkage, which inhibits both degradation of the 3′-5′ exonuclease activity and extension by DNA polymerases.
POLγ is an heterotrimer of one POLγA subunit (harboring exonuclease and DNA polymerase activities) and two accessory POLγB subunits. Proteins used in the exonuclease assay were POLγA (NP_002684) and POLγB (NP_009146).
The protein mixture used in the assays contained POLγA (1 nM), POLγB (1.3 nM, concentration calculated as a dimer), 25 mM Tris-HCl (pH 8.0), 0.1 mg/mL bovine serum albumin, 1 mM Bond-Breaker TCEP solution (pH 7) [Thermo Fisher], 25 mM NaCl, and 0.02% Triton X-100.
The DNA template mixture used in the assay contained 5 nM of the exonuclease template, 25 mM Tris-HCl (pH 8.0), 10 mM MgCl2, 0.1 mg/mL bovine serum albumin, 1 mM Bond-Breaker TCEP solution [Thermo Fisher], and 0.02% Triton X-100.
as §1
The protein mixture containing POLγ was dispensed (5 μL in each well) into compound plates and incubated at 37° C. for 15 minutes to allow compound binding to the POLγ complex. After incubation, 5 μL of the DNA template mixture was dispensed into each well. The plates were incubated at 37° C. for 2.5 hours.
as §2
After the 2.5-hour incubation period, the SYBR Green I solution was added (10 μL) to the screening plates and the plates were incubated at room temperature in the dark for 20 minutes before the fluorescent signal was read between […] on a BMG Pherastar microtiter plate reader.

SMILES	AC50 (POLγA:G848S) [µM]	IC50 [1] [µM]
Cc1cc(S(=O)(=O)Nc2cccc(C(=O)N[C@@H](C)c3ccccc3)c2)c(C)cc1Cl [Example 45, (S)-3-((4-chloro-2,5-dimethylphenyl)sulfonamido)-N-(1-phenylethyl)benzamide]	> 100	
Cc1cc(S(=O)(=O)Nc2cccc(-c3nc(C4CC4)cn3C)c2)c(C)cc1Cl [Example 186, 4-chloro-N-(3-(4-cyclopropyl-1-methyl-1H-imidazol-2-yl)phenyl)-2,5-dimethylbenzenesulfonamide]		7
